{"source": "paper PMC6895199", "about": "“A new antiviral scaffold for human norovirus identified with computer-aided approaches on the viral polymerase” (Scientific Reports, 2019)", "key": {"HuNoV (GII.4) RdRp": {"target": "HuNoV (GII.4) RdRp (Norovirus Hu/GII.4/Sydney/NSW0514/2012/AU, UniProt K4L8Z7)", "assay": "Quantitative fluorescent RdRp activity assay (PicoGreen, poly(C) template)", "format": "biochemical, human norovirus Sydney 2012", "conditions": "20 µM; for inhibition at 20 µM: read-out: inhibition of HuNoV RdRp activity at fixed concentration", "method_in_brief": "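Enzyme (400 ng) preincubated with compound 10 min at 30 °C, then reacted 15 min at 30 °C with 45 μM GTP, 10 ng/μL poly(C), 2.5 mM MnCl2, pH 7.5. Stopped with EDTA; dsRNA quantified by PicoGreen. Six concentrations (0.1–100 µM) gave IC50, or single 20 µM screen vs 0.5% DMSO.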"}, "[1]": {"assay": "Cytotoxicity by the MTS method on uninfected cells", "format": "cell-based", "conditions": "mouse, uninfected RAW 264.7 cells, Table 2, at least three independent experiments", "procedure": "Cytotoxicity: The cytotoxicity of the Compounds was evaluated by the MTS method, by exposing uninfected cells to the same concentrations of compounds for 3 days. The %cell viability was calculated as (ODtreated/ODCC) × 100, where ODCC is the OD of uninfected untreated cells and ODtreated are uninfected cells treated with compound. The CC50 was defined as the compound concentration that reduces the number of viable cells by 50%[34]."}}}
{"smiles": "O=C(NC(=S)Nc1ccc(N2CCN(C(=O)c3nccs3)CC2)cc1)c1sc2ccccc2c1Cl", "note": "[Compound 56, 3-Chloro-N-((4-(4-(thiazole-2-carbonyl)piperazin-1-yl)phenyl)carbamothioyl)benzo[b]thiophene-2-carboxamide]", "values": [{"measurement": "inhibition of HuNoV RdRp activity at fixed concentration", "setting": "HuNoV (GII.4) RdRp", "value": "does not affect enzymatic inhibition activity"}, {"measurement": "CC50 at 3 days", "setting": "[1]", "value": "> 100", "unit": "µM"}]}
{"smiles": "O=C(NC(=S)Nc1ccc(N2CCN(C(=O)c3cccs3)CC2)cc1)c1sc2ccccc2c1Cl", "note": "[Compound 48, 3-Chloro-N-((4-(4-(thiophene-2-carbonyl)piperazin-1-yl)phenyl)carbamothioyl)benzo[b]thiophene-2-carboxamide, reference compound]", "values": [{"measurement": "inhibition at 20 µM", "setting": "HuNoV (GII.4) RdRp", "value": 20, "unit": "%"}, {"measurement": "CC50 at 3 days", "setting": "[1]", "value": "> 100", "unit": "µM"}]}
{"smiles": "Cc1ccc(C(=O)NC(=S)Nc2ccc(N3CCN(C(=O)c4cccs4)CC3)cc2)cc1", "note": "[Compound 52, 4-Methyl-N-((4-(4-(thiophene-2-carbonyl)piperazin-1-yl)phenyl)carbamothioyl)benzamide]", "values": [{"measurement": "inhibition at 20 µM", "setting": "HuNoV (GII.4) RdRp", "value": "~15", "unit": "%"}, {"measurement": "CC50 at 3 days", "setting": "[1]", "value": "> 100", "unit": "µM"}]}
